Measured values from the supplement of paper PMC11208160.

Test: recombinant UMI read abundance after kanamycin selection (control-corrected) (log10(CPM+1)); higher = more efficient recombination; extreme values may be limits of the assay; sequences stand for … in AGTGCAGAGAAAATCGGCCAGTTTTCTCTGCCTGCAGTCCGCATGCCGTGGGACCCCTTGGGTTCTAACCTGTTGCCTAGATTTATGCAGCGGACTGCCTTTCTCCCAAAGTGATAAACCGG…AGGTTGGTTTCACT; site = the 11-nt donor
Summary of the method: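 Sequencing read counts were converted to CPM, averaged over two replicates and scaled by control-derived factors. Results are given as log10(CPM+1). The reads covered the donor–target junction of recombinant UMIs from a pooled Escherichia coli screen of donor and donor-binding-loop pairs for the IS621 bridge recombinase.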
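Further: IS621 bridge recombinase in Escherichia coli cells against a fixed T5 target plasmid.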

First: CCGTTAGCATGGACCGGTTTTCCCGGTAATCCGTATTTGTA (site CCGTTAGCTTA)
Second: CCGTTAGCATGGACCGGTTTTCCCGGTAATCCGTATTTGTC (site CCGTTAGCTAA)
The “recombinant UMI read abundance (log10)” value of the first is higher: 0.601 for the first, 0.0291 for the second.

Going from “CCGTTAGCATGGACCGGTTTTCCCGGTAATCCGTATTTGTC (site CCGTTAGCTCA)” to “CCGTTAGCATGGACCGGTTTTCCCGGTAATCCGTATTTGTC (site CCGTTAGCTGA)”, the “recombinant UMI read abundance (log10)” value rises from 0.00762 to 1.58.

Going from “CCGTTAGCATGGACCGGTTTTCCCGGTAATCCGTATTTGTC (site CCGTTAGCTTA)” to “CCGTTAGCATGGACCGGTTTTCCCGGTAATCCGTATTTGTT (site CCGTTAGCTAA)”, the “recombinant UMI read abundance (log10)” value rises from 0.396 to 1.02.

“CCGTTAGCATGGACCGGTTTTCCCGGTAATCCGTATTTGTT (site CCGTTAGCTCA)” and “CCGTTAGCATGGACCGGTTTTCCCGGTAATCCGTATTTGTT (site CCGTTAGCTGA)” are within 0.2 log units of each other in “recombinant UMI read abundance (log10)” value: 0.00936 for the first, 0 for the second.

“CCGTTAGCATGGACCGGTTTTCCCGGTAATCCGTATTTGTT (site CCGTTAGCTTA)” and “CCGTTATCATGGACCGGTTTTCCCGGTAATCCGTATTTGTG (site CCGTTAACTCA)” are within 0.2 log units of each other in “recombinant UMI read abundance (log10)” value: 0.00339 for the first, 0.0485 for the second.

“CCGTTATCATGGACCGGTTTTCCCGGTAATCCGTATTTGTG (site CCGTTACCTCA)” and “CCGTTATCATGGACCGGTTTTCCCGGTAATCCGTATTTGTG (site CCGTTAGCTCA)” are within 0.2 log units of each other in “recombinant UMI read abundance (log10)” value: 0.00831 for the first, 0.0138 for the second.

First: CCGTTATCATGGACCGGTTTTCCCGGTAATCCGTATTTGTG (site CCGTTATCTCA)
Second: CCGTTCTCATGGACCGGTTTTCCCGGTAATCCGTATTTGGA (site CCGTTCTCTTC)
The “recombinant UMI read abundance (log10)” value of the first is higher: 0.662 for the first, 0 for the second.

First: CCGTTTACATGGACCGGTTTTCCCGGTAATCCGTATTTGGT (site CCGTTTACTAA)
Second: CCGTTTACATGGACCGGTTTTCCCGGTAATCCGTATTTGGT (site CCGTTTACTAC)
The “recombinant UMI read abundance (log10)” value of the first is lower: 0.00739 for the first, 0.279 for the second.

“CCGTTTACATGGACCGGTTTTCCCGGTAATCCGTATTTGGT (site CCGTTTACTAG)” and “CCGTTTACATGGACCGGTTTTCCCGGTAATCCGTATTTGGT (site CCGTTTACTAT)” are the same in “recombinant UMI read abundance (log10)” value: 0 for the first, 0 for the second.

“CCGTTTCCATGGACCGGTTTTCCCGGTAATCCGTATTTGAC (site CCGTTTCCTGT)” and “CCGTTTTCATGGACCGGTTTTCCCGGTAATCCGTATTTGCT (site CCGTTTACTAG)” are the same in “recombinant UMI read abundance (log10)” value: 0 for the first, 0 for the second.

“CCGTTTTCATGGACCGGTTTTCCCGGTAATCCGTATTTGCT (site CCGTTTCCTAG)” and “CCGTTTTCATGGACCGGTTTTCCCGGTAATCCGTATTTGCT (site CCGTTTGCTAG)” are within 0.2 log units of each other in “recombinant UMI read abundance (log10)” value: 0.00608 for the first, 0 for the second.

“CCGTTTTCATGGACCGGTTTTCCCGGTAATCCGTATTTGCT (site CCGTTTTCTAG)” and “CCTAAAGCATGGACCGGTTTTCCCGGTAATCCGTATTTGAT (site ACTAAAGCTAT)” are the same in “recombinant UMI read abundance (log10)” value: 0 for the first, 0 for the second.

“CCTAAAGCATGGACCGGTTTTCCCGGTAATCCGTATTTGAT (site CATAAAGCTAT)” and “CCTAAAGCATGGACCGGTTTTCCCGGTAATCCGTATTTGAT (site CCAAAAGCTAT)” are the same in “recombinant UMI read abundance (log10)” value: 0 for the first, 0 for the second.

“CCTAAAGCATGGACCGGTTTTCCCGGTAATCCGTATTTGAT (site CCCAAAGCTAT)” and “CCTAAAGCATGGACCGGTTTTCCCGGTAATCCGTATTTGAT (site CCGAAAGCTAT)” are within 0.2 log units of each other in “recombinant UMI read abundance (log10)” value: 0.0148 for the first, 0 for the second.

“CCTAAAGCATGGACCGGTTTTCCCGGTAATCCGTATTTGAT (site CCTAAAACTAT)” and “CCTAAAGCATGGACCGGTTTTCCCGGTAATCCGTATTTGAT (site CCTAAACCTAT)” are within 0.2 log units of each other in “recombinant UMI read abundance (log10)” value: 0 for the first, 0.00391 for the second.

“CCTAAAGCATGGACCGGTTTTCCCGGTAATCCGTATTTGAT (site CCTAAAGCTAA)” and “CCTAAAGCATGGACCGGTTTTCCCGGTAATCCGTATTTGAT (site CCTAAAGCTAC)” are the same in “recombinant UMI read abundance (log10)” value: 0 for the first, 0 for the second.

“CCTAAAGCATGGACCGGTTTTCCCGGTAATCCGTATTTGAT (site CCTAAAGCTAG)” and “CCTAAAGCATGGACCGGTTTTCCCGGTAATCCGTATTTGAT (site CCTAAAGCTAT)” are within 0.2 log units of each other in “recombinant UMI read abundance (log10)” value: 0 for the first, 0.14 for the second.

“CCTAAAGCATGGACCGGTTTTCCCGGTAATCCGTATTTGAT (site CCTAAAGCTCT)” and “CCTAAAGCATGGACCGGTTTTCCCGGTAATCCGTATTTGAT (site CCTAAAGCTGT)” are within 0.2 log units of each other in “recombinant UMI read abundance (log10)” value: 0.00392 for the first, 0 for the second.

“CCTAAAGCATGGACCGGTTTTCCCGGTAATCCGTATTTGAT (site CCTAAAGCTTT)” and “CCTAAAGCATGGACCGGTTTTCCCGGTAATCCGTATTTGAT (site CCTAAATCTAT)” are the same in “recombinant UMI read abundance (log10)” value: 0 for the first, 0 for the second.

“CCTAAAGCATGGACCGGTTTTCCCGGTAATCCGTATTTGAT (site CCTAACGCTAT)” and “CCTAAAGCATGGACCGGTTTTCCCGGTAATCCGTATTTGAT (site CCTAAGGCTAT)” are within 0.2 log units of each other in “recombinant UMI read abundance (log10)” value: 0.035 for the first, 0 for the second.

“CCTAAAGCATGGACCGGTTTTCCCGGTAATCCGTATTTGAT (site CCTAATGCTAT)” and “CCTAAAGCATGGACCGGTTTTCCCGGTAATCCGTATTTGAT (site CCTACAGCTAT)” are within 0.2 log units of each other in “recombinant UMI read abundance (log10)” value: 0.00544 for the first, 0.0037 for the second.

“CCTAAAGCATGGACCGGTTTTCCCGGTAATCCGTATTTGAT (site CCTAGAGCTAT)” and “CCTAAAGCATGGACCGGTTTTCCCGGTAATCCGTATTTGAT (site CCTATAGCTAT)” are within 0.2 log units of each other in “recombinant UMI read abundance (log10)” value: 0.00698 for the first, 0.00347 for the second.

“CCTAAAGCATGGACCGGTTTTCCCGGTAATCCGTATTTGAT (site CCTCAAGCTAT)” and “CCTAAAGCATGGACCGGTTTTCCCGGTAATCCGTATTTGAT (site CCTGAAGCTAT)” are within 0.2 log units of each other in “recombinant UMI read abundance (log10)” value: 0.00248 for the first, 0 for the second.

“CCTAAAGCATGGACCGGTTTTCCCGGTAATCCGTATTTGAT (site CCTTAAGCTAT)” and “CCTAAAGCATGGACCGGTTTTCCCGGTAATCCGTATTTGAT (site CGTAAAGCTAT)” are within 0.2 log units of each other in “recombinant UMI read abundance (log10)” value: 0.0074 for the first, 0 for the second.

“CCTAAAGCATGGACCGGTTTTCCCGGTAATCCGTATTTGAT (site CTTAAAGCTAT)” and “CCTAAAGCATGGACCGGTTTTCCCGGTAATCCGTATTTGAT (site GCTAAAGCTAT)” are within 0.2 log units of each other in “recombinant UMI read abundance (log10)” value: 0.00697 for the first, 0 for the second.

“CCTAAAGCATGGACCGGTTTTCCCGGTAATCCGTATTTGAT (site TCTAAAGCTAT)” and “CCTAAAGCATGGACCGGTTTTCCCGGTAATCCGTATTTGGA (site CCTAAAGCTTC)” are within 0.2 log units of each other in “recombinant UMI read abundance (log10)” value: 0.00543 for the first, 0.0116 for the second.

“CCTAAGACATGGACCGGTTTTCCCGGTAATCCGTATTTGGC (site CCTAAAACTGC)” and “CCTAAGACATGGACCGGTTTTCCCGGTAATCCGTATTTGGC (site CCTAACACTGC)” are the same in “recombinant UMI read abundance (log10)” value: 0 for the first, 0 for the second.

“CCTAAGACATGGACCGGTTTTCCCGGTAATCCGTATTTGGC (site CCTAAGACTGC)” and “CCTAAGACATGGACCGGTTTTCCCGGTAATCCGTATTTGGC (site CCTAATACTGC)” are the same in “recombinant UMI read abundance (log10)” value: 0 for the first, 0 for the second.

“CCTAAGGCATGGACCGGTTTTCCCGGTAATCCGTATTTGAT (site CCTAAAGCTAT)” and “CCTAAGGCATGGACCGGTTTTCCCGGTAATCCGTATTTGAT (site CCTAACGCTAT)” are within 0.2 log units of each other in “recombinant UMI read abundance (log10)” value: 0 for the first, 0.00671 for the second.

“CCTAAGGCATGGACCGGTTTTCCCGGTAATCCGTATTTGAT (site CCTAAGGCTAT)” and “CCTAAGGCATGGACCGGTTTTCCCGGTAATCCGTATTTGAT (site CCTAATGCTAT)” are within 0.2 log units of each other in “recombinant UMI read abundance (log10)” value: 0.0186 for the first, 0 for the second.

“CCTAATACATGGACCGGTTTTCCCGGTAATCCGTATTTGGC (site ACTAATACTGC)” and “CCTAATACATGGACCGGTTTTCCCGGTAATCCGTATTTGGC (site CATAATACTGC)” are the same in “recombinant UMI read abundance (log10)” value: 0 for the first, 0 for the second.

“CCTAATACATGGACCGGTTTTCCCGGTAATCCGTATTTGGC (site CCAAATACTGC)” and “CCTAATACATGGACCGGTTTTCCCGGTAATCCGTATTTGGC (site CCCAATACTGC)” are the same in “recombinant UMI read abundance (log10)” value: 0 for the first, 0 for the second.

“CCTAATACATGGACCGGTTTTCCCGGTAATCCGTATTTGGC (site CCGAATACTGC)” and “CCTAATACATGGACCGGTTTTCCCGGTAATCCGTATTTGGC (site CCTAAAACTGC)” are within 0.2 log units of each other in “recombinant UMI read abundance (log10)” value: 0 for the first, 0.00801 for the second.

“CCTAATACATGGACCGGTTTTCCCGGTAATCCGTATTTGGC (site CCTAACACTGC)” and “CCTAATACATGGACCGGTTTTCCCGGTAATCCGTATTTGGC (site CCTAAGACTGC)” are the same in “recombinant UMI read abundance (log10)” value: 0 for the first, 0 for the second.

“CCTAATACATGGACCGGTTTTCCCGGTAATCCGTATTTGGC (site CCTAATACTAC)” and “CCTAATACATGGACCGGTTTTCCCGGTAATCCGTATTTGGC (site CCTAATACTCC)” are within 0.2 log units of each other in “recombinant UMI read abundance (log10)” value: 0.0181 for the first, 0.00819 for the second.

“CCTAATACATGGACCGGTTTTCCCGGTAATCCGTATTTGGC (site CCTAATACTGA)” and “CCTAATACATGGACCGGTTTTCCCGGTAATCCGTATTTGGC (site CCTAATACTGC)” are within 0.2 log units of each other in “recombinant UMI read abundance (log10)” value: 0.0391 for the first, 0 for the second.

“CCTAATACATGGACCGGTTTTCCCGGTAATCCGTATTTGGC (site CCTAATACTGG)” and “CCTAATACATGGACCGGTTTTCCCGGTAATCCGTATTTGGC (site CCTAATACTGT)” are the same in “recombinant UMI read abundance (log10)” value: 0 for the first, 0 for the second.

With “CCTAATACATGGACCGGTTTTCCCGGTAATCCGTATTTGGC (site CCTAATACTTC)” the “recombinant UMI read abundance (log10)” value was 0.00574.
